Measured values: patent US8309597B2, “1,1′-diadamantyl carboxylic acids, medicaments containing such compounds and their use” (Boehringer Ingelheim International GmbH, priority 2008, dated 2012)

Biological target: T1, 11β-hydroxysteroid dehydrogenase (HSD) 1 (Homo sapiens, UniProt P28845)
T1 construct: detecting cortisol generated from cortisterone by human liver microsomes; from tissue; host or cells: human liver microsomes
Test: In vitro inhibition of 11β-HSD1, HTRF detection of cortisol generated from cortisone by human liver microsomes
Type: biochemical
Details: compound concentration 1 μM, 100% indicates no inhibition, zero or below zero indicates complete inhibition
Experimental: Briefly, compounds are incubated for 1 hour at 37° C. in Tris buffer (20 mM tris, 5 mM EDTA, pH 6.0) containing NADPH (200 μM) and cortisone (80 nM). Cortisol generated in the reaction is then detected with a competitive immunoassay, involving two HTRF conjugates: cortisol linked to XL665 and anti-cortisol antibody labeled with Europium cryptate. The incubation period for detection reaction is typically 2 hours. The amount of cortisol is determined by reading the time-resolved fluorescence of the wells (Ex 320/75 nm; Em 615/8.5 nm and 665/7.5 nm). The ratio of the two emission signals is then calculated (Em665*10000/Em615). […] Each assay also contains a calibration curve with cortisol to transform the fluorescent data into cortisol concentrations. Percent inhibition (% CTL) of each compound is determined relative to the carbenoxolone signal and IC50 curves are generated.
The % CTL values of some example compounds at a concentration of 1 μM are provided in the following Table 2 wherein 100% indicates no inhibition and a value of zero or below zero indicates complete inhibition. The measurement of % CTL is described hereinbefore.

T1 sequence (P28845 whole entry): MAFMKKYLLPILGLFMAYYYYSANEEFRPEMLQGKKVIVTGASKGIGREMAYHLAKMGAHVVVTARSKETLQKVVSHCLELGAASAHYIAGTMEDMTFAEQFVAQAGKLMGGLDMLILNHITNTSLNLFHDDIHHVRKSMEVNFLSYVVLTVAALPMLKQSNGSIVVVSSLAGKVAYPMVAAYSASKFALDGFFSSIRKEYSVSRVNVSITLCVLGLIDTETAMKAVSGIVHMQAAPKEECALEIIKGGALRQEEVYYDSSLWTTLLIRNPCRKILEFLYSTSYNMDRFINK

SMILES: O=C(O)C12CC3CC(C1)CC(C14CC5CC(CC(C(=O)N(CCc6ccccc6)C6CCCCC6)(C5)C1)C4)(C3)C2 [Example 39]
- 11β-HSD 1 inhibitory activity (% CTL at 1 μM): 53 % CTL

SMILES: CN(C(=O)C12CC3CC(C1)CC(C14CC5CC(CC(C(=O)O)(C5)C1)C4)(C3)C2)C1CCC(C(C)(C)C)CC1 (stereo not shown) [Example 38]
- 11β-HSD 1 inhibitory activity (% CTL at 1 μM): 7 % CTL

SMILES: CN(C(=O)C12CC3CC(C1)CC(C14CC5CC(CC(C(=O)O)(C5)C1)C4)(C3)C2)C1CCCNC1 (stereo not shown) [Example 31]
- 11β-HSD 1 inhibitory activity (% CTL at 1 μM): 61 % CTL

SMILES: CCN(C)C(=O)C12CC3CC(C1)CC(C14CC5CC(CC(C(=O)O)(C5)C1)C4)(C3)C2 [Example 18]
- 11β-HSD 1 inhibitory activity (% CTL at 1 μM): −26 % CTL

SMILES: O=C(O)C12CC3CC(C1)CC(C14CC5CC(CC(CO)(C5)C1)C4)(C3)C2 [Example 14]
- 11β-HSD 1 inhibitory activity (% CTL at 1 μM): −5 % CTL

SMILES: COc1ccc(CCCN(C)C(=O)C23CC4CC(C2)CC(C25CC6CC(CC(C(=O)O)(C6)C2)C5)(C4)C3)cc1 [Example 23]
- 11β-HSD 1 inhibitory activity (% CTL at 1 μM): −18 % CTL

SMILES: O=C(O)C12CC3CC(C1)CC(C14CC5CC(CC(C(=O)N6CCc7cc(Br)ccc7C6)(C5)C1)C4)(C3)C2 [Example 49]
- 11β-HSD 1 inhibitory activity (% CTL at 1 μM): 24 % CTL

SMILES: NC(=O)C12CC3CC(C1)CC(C14CC5CC(CC(C(=O)O)(C5)C1)C4)(C3)C2 [Example 5]
- 11β-HSD 1 inhibitory activity (% CTL at 1 μM): 50 % CTL

SMILES: CN(CCc1ccccc1)C(=O)C12CC3CC(C1)CC(C14CC5CC(CC(C(=O)O)(C5)C1)C4)(C3)C2 [Example 10]
- 11β-HSD 1 inhibitory activity (% CTL at 1 μM): −3 % CTL

SMILES: N#CNC(=O)C12CC3CC(C1)CC(C14CC5CC(CC(C(=O)O)(C5)C1)C4)(C3)C2 [Example 19]
- 11β-HSD 1 inhibitory activity (% CTL at 1 μM): 19 % CTL

SMILES: N#Cc1ccc2c(c1)CN(C(=O)C13CC4CC(C1)CC(C15CC6CC(CC(C(=O)O)(C6)C1)C5)(C4)C3)CC2 [Example 44]
- 11β-HSD 1 inhibitory activity (% CTL at 1 μM): −17 % CTL

SMILES: CN(C(=O)C12CC3CC(C1)CC(C14CC5CC(CC(C(=O)O)(C5)C1)C4)(C3)C2)C1CCCCC1 [Example 29]
- 11β-HSD 1 inhibitory activity (% CTL at 1 μM): −8 % CTL

SMILES: O=C(O)C12CC3CC(C1)CC(C14CC5CC(CC(c6nnc(-c7ccccc7)o6)(C5)C1)C4)(C3)C2 [Example 26]
- 11β-HSD 1 inhibitory activity (% CTL at 1 μM): 44 % CTL

SMILES: O=C(O)C12CC3CC(C1)CC(C14CC5CC(CC(C(=O)N6CCc7ccccc76)(C5)C1)C4)(C3)C2 [Example 51]
- 11β-HSD 1 inhibitory activity (% CTL at 1 μM): 4 % CTL

SMILES: CN(C(=O)C12CC3CC(C1)CC(C14CC5CC(CC(C(=O)O)(C5)C1)C4)(C3)C2)c1ccc(-c2ccccc2)cc1 [Example 34]
- 11β-HSD 1 inhibitory activity (% CTL at 1 μM): 36 % CTL

SMILES: CN(C(=O)C12CC3CC(C1)CC(C14CC5CC(CC(C(=O)O)(C5)C1)C4)(C3)C2)C1CCCC1 [Example 40]
- 11β-HSD 1 inhibitory activity (% CTL at 1 μM): −20 % CTL

SMILES: O=C(O)C12CC3CC(C1)CC(C14CC5CC(CC(C6=NCc7ccccc7N6)(C5)C1)C4)(C3)C2 [Example 37]
- 11β-HSD 1 inhibitory activity (% CTL at 1 μM): 62 % CTL

SMILES: CC(C)N(C)C(=O)C12CC3CC(C1)CC(C14CC5CC(CC(C(=O)O)(C5)C1)C4)(C3)C2 [Example 17]
- 11β-HSD 1 inhibitory activity (% CTL at 1 μM): −26 % CTL

SMILES: CC(C)(C)OC(=O)NC12CC3CC(C1)CC(C14CC5CC(CC(C(=O)O)(C5)C1)C4)(C3)C2 [Example 7]
- 11β-HSD 1 inhibitory activity (% CTL at 1 μM): 26 % CTL

SMILES: COc1ccc(N(C)C(=O)C23CC4CC(C2)CC(C25CC6CC(CC(C(=O)O)(C6)C2)C5)(C4)C3)cc1 [Example 33]
- 11β-HSD 1 inhibitory activity (% CTL at 1 μM): 81 % CTL

SMILES: O=C(O)C12CC3CC(C1)CC(C14CC5CC(CC(C(=O)NCCO)(C5)C1)C4)(C3)C2 [Example 13]
- 11β-HSD 1 inhibitory activity (% CTL at 1 μM): 53 % CTL

SMILES: N#CC12CC3CC(C1)CC(C14CC5CC(CC(C(=O)O)(C5)C1)C4)(C3)C2 [Example 6]
- 11β-HSD 1 inhibitory activity (% CTL at 1 μM): 1 % CTL

SMILES: COCC1CCCN1C(=O)C12CC3CC(C1)CC(C14CC5CC(CC(C(=O)O)(C5)C1)C4)(C3)C2 (stereo not shown) [Example 47]
- 11β-HSD 1 inhibitory activity (% CTL at 1 μM): −15 % CTL

SMILES: O=C(O)C12CC3CC(C1)CC(C14CC5CC(CC(c6ncc7ccccc7n6)(C5)C1)C4)(C3)C2 [Example 50]
- 11β-HSD 1 inhibitory activity (% CTL at 1 μM): −9 % CTL

SMILES: CN(C)C(=O)c1ccc(Oc2ccc3c(c2)CN(C(=O)C24CC5CC(C2)CC(C26CC7CC(CC(C(=O)O)(C7)C2)C6)(C5)C4)CC3)cc1 [Example 46]
- 11β-HSD 1 inhibitory activity (% CTL at 1 μM): 0 % CTL

SMILES: O=C(O)C12CC3CC(C1)CC(C14CC5CC(CC(C(=O)N6CCCC6)(C5)C1)C4)(C3)C2 [Example 11]
- 11β-HSD 1 inhibitory activity (% CTL at 1 μM): −11 % CTL

SMILES: O=C(O)C12CC3CC(C1)CC(C14CC5CC(CC(COc6ccccn6)(C5)C1)C4)(C3)C2 [Example 15]
- 11β-HSD 1 inhibitory activity (% CTL at 1 μM): 34 % CTL

SMILES: O=C(O)C12CC3CC(C1)CC(C14CC5CC(CC(C(=O)N6CCOCC6)(C5)C1)C4)(C3)C2 [Example 12]
- 11β-HSD 1 inhibitory activity (% CTL at 1 μM): 1 % CTL

SMILES: CN(C(=O)C12CC3CC(C1)CC(C14CC5CC(CC(C(=O)O)(C5)C1)C4)(C3)C2)C1CCC(c2ccccc2)CC1 (stereo not shown) [Example 36]
- 11β-HSD 1 inhibitory activity (% CTL at 1 μM): 13 % CTL

SMILES: O=C(O)C12CC3CC(C1)CC(C14CC5CC(CC(c6nnn[nH]6)(C5)C1)C4)(C3)C2 [Example 21]
- 11β-HSD 1 inhibitory activity (% CTL at 1 μM): 69 % CTL

SMILES: CC(=O)NC12CC3CC(C1)CC(C14CC5CC(CC(C(=O)O)(C5)C1)C4)(C3)C2 [Example 16]
- 11β-HSD 1 inhibitory activity (% CTL at 1 μM): 69 % CTL

SMILES: O=C(O)C12CC3CC(C1)CC(C14CC5CC(CC(c6nc7ccccc7n6CCc6ccccc6)(C5)C1)C4)(C3)C2 [Example 41]
- 11β-HSD 1 inhibitory activity (% CTL at 1 μM): 0 % CTL

SMILES: CN(C(=O)C12CC3CC(C1)CC(C14CC5CC(CC(C(=O)O)(C5)C1)C4)(C3)C2)c1ccccc1 [Example 30]
- 11β-HSD 1 inhibitory activity (% CTL at 1 μM): 30 % CTL

SMILES: COC(=O)C12CC3CC(C1)CC(C14CC5CC(CC(C(=O)O)(C5)C1)C4)(C3)C2 [Example 1]
- 11β-HSD 1 inhibitory activity (% CTL at 1 μM): −7 % CTL

SMILES: O=C(O)C12CC3CC(C1)CC(C14CC5CC(CC(c6nc7ccccc7o6)(C5)C1)C4)(C3)C2 [Example 27]
- 11β-HSD 1 inhibitory activity (% CTL at 1 μM): 12 % CTL

SMILES: O=C(O)C12CC3CC(C1)CC(C14CC5CC(CC(C(=O)N6CCc7ccccc7C6)(C5)C1)C4)(C3)C2 [Example 43]
- 11β-HSD 1 inhibitory activity (% CTL at 1 μM): −20 % CTL

SMILES: O=C(O)C12CC3CC(C1)CC(C14CC5CC(CC(C(=O)N6Cc7ccccc7C6)(C5)C1)C4)(C3)C2 [Example 42]
- 11β-HSD 1 inhibitory activity (% CTL at 1 μM): −36 % CTL

SMILES: Cn1c(C23CC4CC(C2)CC(C25CC6CC(CC(C(=O)O)(C6)C2)C5)(C4)C3)nc2ccccc21 [Example 32]
- 11β-HSD 1 inhibitory activity (% CTL at 1 μM): 8 % CTL

SMILES: CN(C)C(=O)C12CC3CC(C1)CC(C14CC5CC(CC(C(=O)O)(C5)C1)C4)(C3)C2 [Example 4]
- 11β-HSD 1 inhibitory activity (% CTL at 1 μM): −13 % CTL

SMILES: COc1ccc(C(=O)C23CC4CC(C2)CC(C25CC6CC(CC(C(=O)O)(C6)C2)C5)(C4)C3)cc1 [Example 24]
- 11β-HSD 1 inhibitory activity (% CTL at 1 μM): −33 % CTL

SMILES: CC(C)(O)C12CC3CC(C1)CC(C14CC5CC(CC(C(=O)O)(C5)C1)C4)(C3)C2 [Example 3]
- 11β-HSD 1 inhibitory activity (% CTL at 1 μM): −11 % CTL

SMILES: CN1CCN(C(=O)C23CC4CC(C2)CC(C25CC6CC(CC(C(=O)O)(C6)C2)C5)(C4)C3)CC1 [Example 22]
- 11β-HSD 1 inhibitory activity (% CTL at 1 μM): 37 % CTL

SMILES: O=C(O)C12CC3CC(C1)CC(C14CC5CC(CC(C(=O)Nc6ccccc6)(C5)C1)C4)(C3)C2 [Example 28]
- 11β-HSD 1 inhibitory activity (% CTL at 1 μM): 96 % CTL

SMILES: CNC(=O)C12CC3CC(C1)CC(C14CC5CC(CC(C(=O)O)(C5)C1)C4)(C3)C2 [Example 2]
- 11β-HSD 1 inhibitory activity (% CTL at 1 μM): 29 % CTL

SMILES: CCN(C(=O)C12CC3CC(C1)CC(C14CC5CC(CC(C(=O)O)(C5)C1)C4)(C3)C2)C1CCCCC1 [Example 35]
- 11β-HSD 1 inhibitory activity (% CTL at 1 μM): −3 % CTL

SMILES: NC12CC3CC(C1)CC(C14CC5CC(CC(C(=O)O)(C5)C1)C4)(C3)C2 [Example 8]
- 11β-HSD 1 inhibitory activity (% CTL at 1 μM): 95 % CTL

SMILES: O=C(O)c1ccc(Oc2ccc3c(c2)CN(C(=O)C24CC5CC(C2)CC(C26CC7CC(CC(C(=O)O)(C7)C2)C6)(C5)C4)CC3)cc1 [Example 45]
- 11β-HSD 1 inhibitory activity (% CTL at 1 μM): 8 % CTL

SMILES: CN(Cc1ccccc1)C(=O)C12CC3CC(C1)CC(C14CC5CC(CC(C(=O)O)(C5)C1)C4)(C3)C2 [Example 9]
- 11β-HSD 1 inhibitory activity (% CTL at 1 μM): 49 % CTL

SMILES: O=C(O)C12CC3CC(C1)CC(C14CC5CC(CC(C(=O)N6CCC6)(C5)C1)C4)(C3)C2 [Example 20]
- 11β-HSD 1 inhibitory activity (% CTL at 1 μM): 7 % CTL
